PMC4965013, “Open Source Drug Discovery with the Malaria Box Compound Collection for Neglected Diseases and Beyond” (PLoS Pathogens, 2016)

Assays:
[1] = test system: P. falciparum 3D7 trophozoites; test: Metabolomic fingerprint profiling LC-MS; assay type: cell-based, Plasmodium falciparum; parameters: UDP-D-glucose / ADP-D-glucose: unit not given here; conditions: for Acetyllysine / N-acetyl-L-ornithine / N-carbamoyl-L-aspartate / NADPH / dAMP / dCMP / dTDP / dTMP / dTTP / dihydroorotate / orotate / DLH / DLS/SDL/SID / PD / PEE / PVNF / 3-phosphoglycerate / ADP-D-glucose / ATP / CDP / D-sedoheptulose-1/7-phosphate / FAD / GMP / NAD+ / NADP+ / Octoluse Bisphosphate / Pyroglutamic acid / UDP-D-glucose / UDP-D-glucuronate / UDP-N-acetyl-glucosamine / UDP / UMP / UTP / a-ketoglutarate / citrate/isocitrate / cytidine / dATP / dGMP/AMP / fumarate / glucose-1/6-phosphate / glycerate / guanine / guanosine / hypoxanthine / indole / inosine / nicotinate / ornithine / phosphoenolpyruvate / pyruvate / ribose-phosphate / sarcosine/alanine / sn-glycerol-3-phosphate / succinate/methylmalonic acid / uridine / xanthosine: S2 Table Metabolomics; for Acetyllysine: metabolite Acetyllysine; for N-acetyl-L-ornithine: metabolite N-acetyl-L-ornithine; for N-carbamoyl-L-aspartate: metabolite N-carbamoyl-L-aspartate; for NADPH: metabolite NADPH; for dAMP: metabolite dAMP; for dCMP: metabolite dCMP; for dTDP: metabolite dTDP; for dTMP: metabolite dTMP; for dTTP: metabolite dTTP; for dihydroorotate: metabolite dihydroorotate; for orotate: metabolite orotate; for DLH: peptide DLH; for DLS/SDL/SID: peptide DLS/SDL/SID; for PD: peptide PD; for PEE: peptide PEE; for PVNF: peptide PVNF; for 3-phosphoglycerate: metabolite 3-phosphoglycerate; for ADP-D-glucose: metabolite ADP-D-glucose; for ATP: metabolite ATP; for CDP: metabolite CDP; for CDP / D-sedoheptulose-1/7-phosphate / GMP / Octoluse Bisphosphate / UDP / UMP / UTP / citrate/isocitrate / dGMP/AMP / fumarate / glucose-1/6-phosphate / glycerate / guanine / guanosine / inosine / pyruvate / sarcosine/alanine / succinate/methylmalonic acid / uridine / xanthosine: change in metabolite level after compound treatment; for D-sedoheptulose-1/7-phosphate: metabolite D-sedoheptulose-1/7-phosphate; for FAD: metabolite FAD; for GMP: metabolite GMP; for NAD+: metabolite NAD+; for NADP+: metabolite NADP+; for Octoluse Bisphosphate: metabolite Octoluse Bisphosphate; for Pyroglutamic acid: metabolite Pyroglutamic acid; for UDP-D-glucose: metabolite UDP-D-glucose; for UDP-D-glucuronate: metabolite UDP-D-glucuronate; for UDP-N-acetyl-glucosamine: metabolite UDP-N-acetyl-glucosamine; for UDP: metabolite UDP; for UMP: metabolite UMP; for UTP: metabolite UTP; for a-ketoglutarate: metabolite a-ketoglutarate; for citrate/isocitrate: metabolite citrate/isocitrate; for cytidine: metabolite cytidine; for dATP: metabolite dATP; for dGMP/AMP: metabolite dGMP/AMP; for fumarate: metabolite fumarate; for glucose-1/6-phosphate: metabolite glucose-1/6-phosphate; for glycerate: metabolite glycerate; for guanine: metabolite guanine; for guanosine: metabolite guanosine; for hypoxanthine: metabolite hypoxanthine; for indole: metabolite indole; for inosine: metabolite inosine; for 2_3-Diphosphoglyceric acid / 4-phosphopantothenate / 6-phospho-D-gluconate / FMN / IMP / Pyrophosphate / Sedoheptoluse bisphosphate / cyclic-AMP / glutathione disulfide / lactate / myo-inositol: metabolite level change after treatment; for nicotinate: metabolite nicotinate; for ornithine: metabolite ornithine; for phosphoenolpyruvate: metabolite phosphoenolpyruvate; for pyruvate: metabolite pyruvate; for ribose-phosphate: metabolite ribose-phosphate; for sarcosine/alanine: metabolite sarcosine/alanine; for sn-glycerol-3-phosphate: metabolite sn-glycerol-3-phosphate; for succinate/methylmalonic acid: metabolite succinate/methylmalonic acid; for uridine: metabolite uridine; for xanthosine: metabolite xanthosine
P. falciparum = test: EC50 listed in S2 Table Metabolomics (used to set the concentration tested); assay type: cell-based; conditions: Plasmodium falciparum; EC50 used for Factor_XEC50 in metabolomics; read-out: EC50_nM

In the case of `COc1ccc(Br)cc1C1Nc2ccc3ccccc3c2C2=C1C(=O)CC(c1ccccc1)C2` (stereo not shown) [MMV020885], the Acetyllysine [1] is reported as -0.2018, the N-acetyl-L-ornithine [1] is reported as 0.05879 and the N-carbamoyl-L-aspartate [1] is reported as 0.2499. The NADPH [1] was 0.3881, the dAMP [1] was -0.07633 and the dCMP [1] was -0.1829. The dTDP [1] was -0.08159, the dTMP [1] was -0.06085 and the dTTP [1] was 0.08356. It also gave a dihydroorotate [1] of 0.4211, an orotate [1] of -0.07163 and a DLH [1] of 0.1131. It also gave a DLS/SDL/SID [1] of 0.0252, a PD [1] of -0.01204 and a PEE [1] of -0.02185. The PVNF [1] was 0.06588, the 3-phosphoglycerate [1] was 0.1773 and the ADP-D-glucose [1] was 0.1062. For the same compound, the ATP [1] was 0.1529, the CDP [1] was -0.1573 and the D-sedoheptulose-1/7-phosphate [1] was -0.3333. The FAD [1] was 0.09744, the GMP [1] was 0.2606 and the “NAD+” value [1] was -0.4069. For the same compound, the “NADP+” value [1] was 0.1167, the “Octoluse Bisphosphate” value [1] was 0.1001 and the Pyroglutamic acid [1] was 0.05012. It also gave a UDP-D-glucose [1] of 0.09185, a UDP-D-glucuronate [1] of 0.09622 and a UDP-N-acetyl-glucosamine [1] of 0.0596. The UDP [1] was -0.2367, the UMP [1] was 0.2791 and the UTP [1] was -0.3268. It also gave an a-ketoglutarate [1] of 0.1759, a citrate/isocitrate [1] of -0.004418 and a cytidine [1] of -0.005151. It also gave a dATP [1] of 0.1038, a dGMP/AMP [1] of -0.1164 and a fumarate [1] of 0.1396. The glucose-1/6-phosphate [1] was 0.3285, the glycerate [1] was 0.153 and the guanine [1] was 0.03354. It also gave a guanosine [1] of 0.1241, a hypoxanthine [1] of 0.09912 and an indole [1] of 0.3168. For the same compound, the inosine [1] was 0.1551, the 2_3-Diphosphoglyceric acid [1] was 0.06597 and the 4-phosphopantothenate [1] was 0.04165. It also gave a 6-phospho-D-gluconate [1] of 0.04292, an FMN [1] of 0.1362 and an IMP [1] of 0.02368. It also gave a Pyrophosphate [1] of 0.2656, a Sedoheptoluse bisphosphate [1] of 0.01639 and a cyclic-AMP [1] of -0.09684. It also gave a glutathione disulfide [1] of 0.06546, a lactate [1] of 0.1283 and a myo-inositol [1] of 0.176. It also gave a nicotinate [1] of 0.1246, an ornithine [1] of -0.2474 and a phosphoenolpyruvate [1] of 0.1975. It also gave a pyruvate [1] of 0.1649, a ribose-phosphate [1] of 0.4239 and a sarcosine/alanine [1] of -0.04603. It also gave a sn-glycerol-3-phosphate [1] of 0.03018, a succinate/methylmalonic acid [1] of 0.08193 and a uridine [1] of 0.101. It also gave a xanthosine [1] of 0.04674 and an EC50 (P. falciparum) of 180 nM.

Compound `CCCCCC(=O)N1c2ccccc2N=C2CC(c3ccc(OC)c(OC)c3)CC(O)=C2C1c1ccc(C(F)(F)F)cc1` (stereo not shown) [MMV085583] has an Acetyllysine [1] of -3.233, a N-acetyl-L-ornithine [1] of -2.906 and a N-carbamoyl-L-aspartate [1] of -0.5597. For the same compound, the NADPH [1] was 1.284, the dAMP [1] was 0.2596 and the dCMP [1] was -0.4552. It also gave a dTDP [1] of -0.3582, a dTMP [1] of -0.9265 and a dTTP [1] of 0.1067. The dihydroorotate [1] was -0.6697, the orotate [1] was -1.058 and the DLH [1] was -2.5. It also gave a DLS/SDL/SID [1] of -2.559, a PD [1] of -2.735 and a PEE [1] of -2.9857. For the same compound, the PVNF [1] was -3.329, the 3-phosphoglycerate [1] was 0.3606 and the ADP-D-glucose [1] was -0.0158. The ATP [1] was -0.07202, the CDP [1] was -0.3911 and the D-sedoheptulose-1/7-phosphate [1] was -0.5433. The FAD [1] was -0.3185, the GMP [1] was -0.4734 and the “NAD+” value [1] was -0.2717. The “NADP+” value [1] was 0.1968, the “Octoluse Bisphosphate” value [1] was -0.2833 and the Pyroglutamic acid [1] was -0.1555. The UDP-D-glucose [1] was -0.1587, the UDP-D-glucuronate [1] was -0.1055 and the UDP-N-acetyl-glucosamine [1] was -0.2414. The UDP [1] was -0.8399, the UMP [1] was -0.6631 and the UTP [1] was -0.1073. The a-ketoglutarate [1] was -0.8202, the citrate/isocitrate [1] was -0.2512 and the cytidine [1] was -0.09635. It also gave a dATP [1] of 0.2253, a dGMP/AMP [1] of -0.1442 and a fumarate [1] of -0.4715. For the same compound, the glucose-1/6-phosphate [1] was -0.3133, the glycerate [1] was -0.7263 and the guanine [1] was -0.4303. The guanosine [1] was -0.4531, the hypoxanthine [1] was -0.4709 and the indole [1] was -0.4645. For the same compound, the inosine [1] was -0.4523, the 2_3-Diphosphoglyceric acid [1] was 0.1524 and the 4-phosphopantothenate [1] was -0.4091. The 6-phospho-D-gluconate [1] was -0.01182, the FMN [1] was -0.2086 and the IMP [1] was -0.3529. It also gave a Pyrophosphate [1] of 0.1499, a Sedoheptoluse bisphosphate [1] of 0.0221 and a cyclic-AMP [1] of -0.3292. For the same compound, the glutathione disulfide [1] was -0.6201, the lactate [1] was -0.8724 and the myo-inositol [1] was -1.425. For the same compound, the nicotinate [1] was 0.07742, the ornithine [1] was 0.02649 and the phosphoenolpyruvate [1] was 0.334. For the same compound, the pyruvate [1] was -0.3941, the ribose-phosphate [1] was -0.07903 and the sarcosine/alanine [1] was -0.9167. It also gave a sn-glycerol-3-phosphate [1] of 0.1681, a succinate/methylmalonic acid [1] of -0.405 and a uridine [1] of -0.7297. For the same compound, the xanthosine [1] was 0.125 and the EC50 (P. falciparum) was 237 nM.
